Measurements taken from paper PMC8226474, “Design, Syntheses, and Bioevaluations of Some Novel N^2-Acryloylbenzohydrazides as Chemostimulants and Cytotoxic Agents” (Medicines, 2021).
Values joined by “and” are separate entries in the source; they are usually repeats but may differ in a detail not shown here. Equal entries are not always repeated. Where two headings read alike, the source gives them in different places.

Legend:
HCT 116 cells [1] = test: Cytotoxicity assay, HCT 116 colon cancer cells; format: cell-based, human; conditions: for IC50 / inhibition at 10 µM / inhibition at 100 µM: Homo sapiens, HCT-116, 48 h; for SI (selectivity index): IC50 CRL 1790 / IC50 HCT 116; for inhibition at 10 µM / inhibition at 100 µM: read-out: percentage inhibition of HCT 116 cells
Excerpt: (§1) Evaluation of the cytotoxic properties of the compounds presented in Table 1, Table 2, Table 3 and Table 4 was undertaken using the procedure outlined in [7]. In brief, the HCT 116 cells were obtained from the ATCC and cultured in McCoy’s 5A medium. The CRL 1790 cells were obtained from the ATCC and cultured in Minimum Essential Medium. The MCF-7 and MDA-MBA-231 cells were obtained from the Saskatchewan Cancer Agency and cultured in DMEM. In each assay the culture medium was supplemented with 10% fetal bovine serum and 1% penicillin–streptomycin antibiotics. The time of the bioassays was 48 h, unless indicated otherwise. All determinations were carried out in triplicate on three different occasions.

CRL 1790 cells = test: Cytotoxicity assay, non-malignant CRL 1790 colon cells; format: cell-based
Excerpt: as §1

HCT 116 cells [2] = test: Chemosensitization of HCT 116 cells: 1m for 24 h, then 2a or 5-FU for a further 24 h; format: cell-based, human; conditions: for Reduction in Live Cells % 2a (24 h): DMSO figure minus compound figure
Excerpt: as §1
The next phase of the investigation was to determine whether a representative compound in series 1 chemosensitizes HCT 116 cells to a 3,5-bis(benzylidene)-4-piperidone 2a. […] The colon cancer cells were incubated for 24 h with 1m, and then 2a was added and the incubation was continued for a further 24 h. Different concentrations of both 1m and 2a were employed, and the results are presented as entries 1–12 in Table 3. In addition, the effects of each of 1m, 2a, and 5-FU on HCT 116 cells (which are necessary for the evaluation of whether chemosensitivity occurs) were recorded, and are presented as entries 13–20 in Table 3.
The concentration of 1m in combination 4 is 5 µM, which after 48 h causes a percentage reduction of live cells to 86% (DMSO figure after 48 h, line 20) minus 75% (48 h, line 13), or 11%.
The concentration of 2a in combination 4 is 0.2 µM. This combination leads to a reduction of the percentage of live cells to 91% (DMSO figure after 24 h, line 20) minus 69%, or 22%.
The percentage reduction in live cells caused by a combination of 1m (5 µM) and 2a (0.2 µM), in the absence of chemosensitization, is 11% plus 22%, or 33%.
However, the percentage reduction in cells as indicated on line 4 is 86% (DMSO figure after 48 h) minus 12% (line 4, 48 h figure), or 74%.

MCF-7 cells = test: Cytotoxicity assay, MCF-7 breast cancer cells; format: cell-based, human; conditions: for inhibition at 10 µM / inhibition at 100 µM / IC50: Homo sapiens, MCF7, 48 h; for inhibition at 10 µM / inhibition at 100 µM: read-out: percentage inhibition of MCF-7 cells; for IC50 / SI (selectivity index): Table 2; for IC50: read-out: Neoplastic Cells IC50, MCF-7; for SI (selectivity index): IC50 CRL 1790 / IC50 MCF-7
Excerpt: as §1

MDA-MB-231 cells = test: Cytotoxicity assay, MDA-MB-231 breast cancer cells; format: cell-based, human; conditions: for inhibition at 10 µM / inhibition at 100 µM / IC50: Homo sapiens, MDA-MB-231, 48 h; for inhibition at 10 µM / inhibition at 100 µM: read-out: percentage inhibition of MDA-MB-231 cells; for IC50 / SI (selectivity index): Table 2; for IC50: read-out: Neoplastic Cells IC50, MDA-MB-231; for SI (selectivity index): IC50 CRL 1790 / IC50 MDA-MB-231
Excerpt: as §1

[3] = Table 4, read-out: IC50 HCT 116
[4] = Homo sapiens, 48 h, Table 4, read-out: IC50 CRL 1790
[5] = Table 2, read-out: Neoplastic Cells IC50, HCT 116

melting point	Compound	IC50 (HCT 116 cells [1]; [3])	SI (selectivity index) (HCT 116 cells [1]; Table 4)	IC50 (CRL 1790 cells; [4])	inhibition at 10 µM (HCT 116 cells [1])	inhibition at 100 µM (HCT 116 cells [1])	inhibition at 10 µM (MCF-7 cells)	inhibition at 100 µM (MCF-7 cells)	inhibition at 10 µM (MDA-MB-231 cells)	inhibition at 100 µM (MDA-MB-231 cells)	further results
	O=C1C(=Cc2ccccc2)CNCC1=Cc1ccccc1 [2a, 3,5-bis(benzylidene)-4-piperidone]	0.37 ± 0.06 µM	36.4	13.5 ± 1.99 µM							Reduction in Live Cells % 2a (24 h) (HCT 116 cells [2]; 2a 0.1 µM alone, 24 h): 8%; Reduction in Live Cells % 2a (24 h) (HCT 116 cells [2]; 2a 0.2 µM alone, 24 h): 22%; Reduction in Live Cells % 2a (24 h) (HCT 116 cells [2]; 2a 0.4 µM alone, 24 h): 43%; Live Cells % (HCT 116 cells [2]; entry 16: 2a 0.1 µM alone, 24 h): 83 ± 2.28%; Live Cells % (HCT 116 cells [2]; entry 16: 2a 0.1 µM alone, 48 h): 78 ± 2.12%; Live Cells % (HCT 116 cells [2]; entry 17: 2a 0.2 µM alone, 24 h): 69% and 69 ± 1.38%; Live Cells % (HCT 116 cells [2]; entry 17: 2a 0.2 µM alone, 48 h): 52 ± 1.15%; Live Cells % (HCT 116 cells [2]; entry 18: 2a 0.4 µM alone, 24 h): 48 ± 1.20%; Live Cells % (HCT 116 cells [2]; entry 18: 2a 0.4 µM alone, 48 h): 32 ± 1.50%
	O=c1[nH]cc(F)c(=O)[nH]1 [5-FU, 5-fluorouracil, reference compound]	4.11 ± 0.22 µM	2.64	10.8 ± 1.64 µM	84.7 ± 2.53%	94.1 ± 0.96%	91.2 ± 3.03%	99.3 ± 2.87%	17.4 ± 2.97%	> 100%	IC50 (HCT 116 cells [1]; [5]): 3.77 ± 0.48 µM; SI (selectivity index) (HCT 116 cells [1]; Table 2): 2.92; IC50 (MCF-7 cells): 2 ± 0.25 µM; SI (selectivity index) (MCF-7 cells): 5.42; IC50 (MDA-MB-231 cells): 15.9 ± 1.65 µM; SI (selectivity index) (MDA-MB-231 cells): 0.68; IC50 (CRL 1790 cells; Homo sapiens, 48 h, Table 2, read-out: Non-Malignant CRL 1790 Cells IC50): 10.8 ± 1.64 µM; Reduction in Live Cells % 2a (24 h) (HCT 116 cells [2]; 5-FU 3 µM alone, 24 h): 13%; Live Cells % (HCT 116 cells [2]; entry 19: 5-FU 3 µM alone, 24 h): 78 ± 2.44%; Live Cells % (HCT 116 cells [2]; entry 19: 5-FU 3 µM alone, 48 h): 55 ± 1.37%
171 to 172 °C	CC(=O)NNC(=O)c1ccccc1 [6b, N^2-Acetylbenzohydrazide]				-4.89 ± 2.52%	13.6 ± 3.03%	-93.8 ± 4.15%	-58.7 ± 3.24%	-22.6 ± 2.65%	-15.3 ± 3.46%	
193 to 195 °C	O=C(CCNNC(=O)c1ccccc1)NNC(=O)c1ccccc1 [6c, N^2-[3-(Benzoylaminoamino)-1-oxopropyl]-N^1-benzoylhydrazine]				18.6 ± 3.98%	96.9 ± 1.86%	16.1 ± 3.55%	97.9 ± 2.68%	-16 ± 2.91%	95.6 ± 4.22%	
151 to 154 °C	COc1ccc(C(=O)NNC(=O)CCN2CC(=Cc3ccccc3)C(=O)C(=Cc3ccccc3)C2)cc1OC [7b, 3,5-Bis(benzylidene)-1-[3-(3,4-dimethoxylphenylcarbonylaminoamino)-3-oxo-1-propyl]-4-piperidone]	3.15 ± 0.33 µM	3.06	9.63 ± 1.62 µM							times more potent than 1m (HCT 116 cells [1]; ratio of IC50 values towards HCT 116 cells): 4.86 times
200 to 202 °C	COc1ccc(C(=O)NNC(=O)CCN2CC(=Cc3ccc(Cl)cc3)C(=O)C(=Cc3ccc(Cl)cc3)C2)cc1OC [7c, 3,5-Bis(4-chlorobenzylidene)-1-[3-(3,4-dimethoxyphenylcarbonylaminoamino)-3-oxo-1-propyl]-4-piperidone]	3.4 ± 0.01 µM	3.60	12.2 ± 1.22 µM							
198 to 200 °C	COc1ccc(C(=O)NNC(=O)CCN2CC(=Cc3ccc(F)cc3)C(=O)C(=Cc3ccc(F)cc3)C2)cc1OC [7d, 3,5-Bis(4-fluorobenzylidene)-1-[3-(3,4-dimethoxyphenylcarbonylaminoamino)-3-oxo-1-propyl]-4-piperidone]	3.82 ± 0.11 µM	2.99	11.4 ± 2.22 µM							
175 to 178 °C	COc1ccc(C=C2CN(CCC(=O)NNC(=O)c3ccc(OC)c(OC)c3)CC(=Cc3ccc(OC)cc3)C2=O)cc1 [7f, 3,5-Bis(4-methoxybenzylidene)-1-[3-(3,4-dimethoxyphenylcarbonylaminoamino)-3-oxo-1-propyl]-4-piperidone]	2.87 ± 0.23 µM	3.86	11.1 ± 0.52 µM							
	N[C@@H](Cc1ccc(N(CCCl)CCCl)cc1)C(=O)O [Melphalan, reference compound]	33.2 ± 1.7 µM	>3.02		33.9 ± 1.81%	98.7 ± 1.12%	> 100%	> 100%	28.6 ± 2.48%	> 100%	IC50 (HCT 116 cells [1]; [5]): 30.7 ± 2.73 µM; SI (selectivity index) (HCT 116 cells [1]; Table 2): >3.25; IC50 (MCF-7 cells): 12 ± 1.43 µM; SI (selectivity index) (MCF-7 cells): >8.32; IC50 (MDA-MB-231 cells): 52.9 ± 2.32 µM; SI (selectivity index) (MDA-MB-231 cells): >1.90; IC50 (CRL 1790 cells; Homo sapiens; Table 2; 48 h; read-out: Non-Malignant CRL 1790 Cells IC50): > 100 µM; IC50 (CRL 1790 cells; Homo sapiens; Table 4; 48 h; read-out: IC50 CRL 1790): > 100 µM
